The values below come from patent US20240376094A2, “SELECTIVE BCL-XL PROTAC COMPOUNDS AND METHODS OF USE” (Les Laboratoires Servier, priority 2021, published 2024).

pIC50: −log10 of the molar value.

What all share (assay type): cell-based
The target of assay [1] is T1, Bcl-xL (Homo sapiens, UniProt Q07817).
T1 construct: Measured levels of Bcl-xL protein of HCT116 cells treated with the tested compounds; host or cells: HCT116
As to the kind of experiment: HCT116 Bcl-xL degradation, capillary-based immunoassay (WES). To be noted: for DC50: HCT116, 24 h, 9-point serial dilution; for remaining activity at 0.01 µM / remaining activity at 0.1 µM: HCT-116, 24 h, % of untreated cells; for remaining activity at 0.01 µM: HCT116, 10 nM; for remaining activity at 0.1 µM: HCT116, 100 nM. In short, it runs like this:
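Bcl-xL protein level by capillary WES immunoassay in HCT116 lysates, as % of untreated after cofilin normalization. Compound exposure was 24 h at 10 and 100 nM and/or a 9-point series, in quadruplicate. Four-parameter fitting gave the DC50.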

In assay [2] the test system is MOLT-4 cells. As to the kind of experiment: MOLT-4 cell viability, MTT assay. Particulars: Homo sapiens, MOLT-4, 48 h. From the text:
The MTT colorimetric assay is based on the mitochondrial reduction of tetrazolium salt by living cells. The viable cell number is proportional to the production of formazan salts, which can be read spectrophotometrically at 540 nm. The CTG luminescent assay (CellTiter GLO, Promega) is based on a reagent which lyses cells and measures total adenosine triphosphate (ATP) content. The viable cell number is proportional to the production of ATP.
MOLT-4 cells were purchased from ATCC and cultivated in RPMI 1640 supplemented with 10% heat inactivated fetal bovine serum, penicillin (100 IU/mi), streptomycin (100 μg/ml) and L-glutamine (2 mM). Cells were cultured at 37° C. in a humidified atmosphere containing 5% […].
For MTT assay, cells were seeded in 96 microwell plates (150 μL per well) and exposed to the compounds for 48 h (3.16 fold serially diluted; 9 concentrations each, triplicates). At the end of incubation time, 15 μL of MTT solution (5 mg/ml) were added per well and the cells were incubated for another 4 h. Then, 100 μL of 10% Sodium Dodecyl Sulfate (SDS)/HCl 10 mM were added per well and the plate was incubated overnight, before measurement of optical density at 540 nm.
IC50, were calculated using standard four-parametric curve fitting. IC50 is defined as the compound concentration at which the MTT or CTG signal is reduced to 50% of that measured for the control. Results shown in Table 14 represent the mean of at least 2 independent experiments.
Background: Formazan colour is commonly taken as a measure of viable cells.

In assay [3] the target is T2, HiBiT-tagged BCL-xL (Homo sapiens, UniProt Q07817).
T2 construct: expressed in transfected cells; host or cells: NCI-H1650 (ATCC No. CRL-5883), engineered HiBiT cell line
Put plainly: NCI-H1650 BCL-xL protein levels, Nano-Glo HiBiT Lytic Detection. To be noted: NCI-H1650 expressing HiBiT-tagged BCL-xL, overnight incubation, read-out: Bcl-xl HIBIT NCIH1650 DC50. In short, it runs like this:
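HiBiT luminescence after cell lysis with LgBiT/furimazine reagent reported BCL-xL levels, expressed relative to untreated wells and fitted with a four-parameter logistic equation. Engineered NCI-H1650 cells were exposed overnight at 37° C to compound at final 0.508 nM-10 μM (10 points, triplicate plates).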

The subject of assay [4] is NCI-H1650. As to the kind of experiment: CellTiter-Glo 3D proliferation assay, NCI-H1650 spheroids. To be noted: Homo sapiens, NCI-H1650, 120 h, 5 days; for Emax: read-out: NCI-H1650 Span (Amax). The protocol:
(§1) The BCL-xL degrader compounds were tested against two endogenous cancer cell lines: • COR-L105: ECACC No. 92031918 cultured in RPMI-1640+10% FBS • NCI-H1650: (ATCC No. CRL-5883 cultured in RPMI-1640+10% FBS
(§2) The ability of the BCL-xL degrader low molecular weight compounds to inhibit cell proliferation and survival was assessed using the Promega CellTiter-Glo® proliferation assay.
(§3) Cell lines were cultured in media that is optimal for their growth at 5% CO2, 37° C. in a tissue culture incubator. Prior to seeding for the proliferation assay, the cells were split at least 2 days before the assay to ensure optimal growth density. On the day of seeding, adherent cells were lifted off tissue culture flasks using 0.25% trypsin. Cell viability and cell density were determined using a cell counter (Vi-Cell XR Cell Viability Analyzer, Beckman Coulter). Cells with higher than 85% viability were seeded for the assay.
(§4) The COR-105 cell line was seeded in white, clear bottom 384-well TC treated plates (Corning cat. #3765). Cells were seeded at a density of 1,000 cells per well in 45 μL of standard growth media. Plates were incubated at 5% CO2, 37° C. overnight in a tissue culture incubator. The NCI-H1650 cell line was seeded in black, clear round bottom 384-well ultra-low attachment spheroid microplates (Corning cat. #3830). Cells were seeded at a density of 3,000 cells per well in 45 uL of standard growth media. Plates were spun in a centrifuge for 5 minutes and 1,000 RPM. Plates were incubated at 5% CO2, 37° C. for 72 hours in a tissue culture incubator.
(§5) On the day of dosing, BCL-xL degrader low molecular weight compounds were prepared at 1 OX in standard growth media. The prepared drug treatments were then added to the cells resulting in final concentrations of 0.508 nM-10 μM and a final volume of 50 μL per well. Each drug concentration was tested in quadruplets. Plates were incubated at 5% CO2, 37° C. for 5 days in a tissue culture incubator.
(§6) For COR-L105 plates, cell viability was assessed through the addition of 25 μL of CellTiter Glo® (Promega, cat #G7573), a reagent which lyses cells and measures total adenosine triphosphate (ATP) content. Plates were incubated at room temperature for 10 minutes to stabilize luminescent signals prior to reading with a luminescence reader (EnVision Multilabel Plate Reader, PerkinElmer). For NCI-H1650 plates, cell viability was assessed through the addition of 40 μL of CellTiter Glo® 3D Cell Viability Assay substrate (Promega, cat #G9681), a reagent which lyses cells and measures total adenosine triphosphate (ATP) content. Wells were mixed thoroughly and plates were incubated at room temperature for 30 minutes to stabilize luminescent signals prior to reading using a luminescence reader (EnVision Multilabel Plate Reader, PerkinElmer).
(§7) To evaluate the effect of the drug treatments, luminescent counts from wells containing untreated cells (100% viability) were used to normalize treated samples. A variable slope model was applied to fit a nonlinear regression curve to the data in GraphPad PRISM version 7.02 software. IC50 and Amax values were extrapolated from the resultant curves. The concentrations of treatment required to inhibit 50% of cell growth or survival (IC50) were calculated with representative IC50 values of the cell lines tested summarized in Table 11.

Assay [5] has as its system EBC-1 lung cancer cell line. Put plainly: EBC-1 cell proliferation, CellTiter-Glo assay. To be noted: Homo sapiens, 120 h; Ebc-1 cell viability, CTG assay, 5 days of treatment; read-out: CTG 5 day Ebc1 GI50. In short, it runs like this:
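CellTiter-Glo read-out after 5-day compound treatment, normalised to untreated cells, with GI50 derived by four-parameter logistic regression. Ten concentrations spanning 0.508 nM–10 μM were added to 1000 EBC-1 cells per well the day after seeding. Assays required at least one cell doubling versus Day 0.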

Assay [6] relates to COR-L105. Put plainly: CellTiter-Glo proliferation assay, COR-L105. To be noted: Homo sapiens, COR-L105, 120 h, COR-L105, 5 days; for Emax: read-out: COR-L105 Span (max). The procedure: as §1, §2, §3, §4, §5, §6, §7

T1 sequence (Q07817 whole entry): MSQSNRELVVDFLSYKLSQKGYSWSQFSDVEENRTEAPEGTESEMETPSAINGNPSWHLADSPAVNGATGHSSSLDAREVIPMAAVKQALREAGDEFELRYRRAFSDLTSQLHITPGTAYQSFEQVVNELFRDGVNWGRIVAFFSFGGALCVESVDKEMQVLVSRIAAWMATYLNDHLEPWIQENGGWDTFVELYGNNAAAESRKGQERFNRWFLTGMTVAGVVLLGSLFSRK
T2 sequence (Q07817 whole entry): as above

Consider `Cc1c(Nc2nc3ccccc3s2)nnc2c1CCCN2c1ccc(-c2cnn(CC34CC5(C)CC(C)(C3)CC(OCCN(C)CCCCCCCCOc3ccc6c(c3)C(=O)N(C3CCC(=O)NC3=O)C6=O)(C5)C4)c2C)c(C(=O)O)n1` (centres unmarked) [Example 10, 6-[3-(1,3-benzothiazol-2-ylamino)-4-methyl-6,7-dihydro-5H-pyrido[2,3-c]pyridazin-8-yl]-3-[1-[[3-[2-[8-[2-(2,6-dioxo-3-piperidyl)-1,3-dioxo-isoindolin-5-yl]oxyoctyl-methyl-amino]ethoxy]-5,7-dimethyl-1-adamantyl]methyl]-5-methyl-pyrazol-4-yl]pyridine-2-carboxylic acid], for which, in assay [1], the DC50 was above 316 nM; the remaining activity (in general, the activity still measured, relative to the control) at 0.01 µM stood at 48%; the remaining activity at 0.1 µM amounted to 43%. Moreover, the pIC50 (usually the negative decadic logarithm of the IC50, by convention in mol/L) in assay [2] was 9.40.
In assay [1], `Cc1cc(N(CCCCCn2cc(COCCOCCOCC(=O)Nc3cccc4c3CN(C3CCC(=O)NC3=O)C4=O)nn2)c2ccc(-c3cnn(CC45CC6(C)CC(C)(C4)CC(OCCN(C)C)(C6)C5)c3C)c(C(=O)O)n2)nnc1Nc1nc2ccccc2s1` (centres unmarked) [Example 28, 6-[[6-(1,3-benzothiazol-2-ylamino)-5-methyl-pyridazin-3-yl]-[5-[4-[2-[2-[2-[[2-(2,6-dioxo-3-piperidyl)-1-oxo-isoindolin-4-yl]amino]-2-oxo-ethoxy]ethoxy]ethoxymethyl]triazol-1-yl]pentyl]amino]-3-[1-[[3-[2-(dimethylamino)ethoxy]-5,7-dimethyl-1-adamantyl]methyl]-5-methyl-pyrazol-4-yl]pyridine-2-carboxylic acid] had a remaining activity at 0.01 µM of 81% and a remaining activity at 0.1 µM of 46%. Moreover, the negative-log IC50 (pIC50) in assay [2] was 8.06.
In turn, `Cc1cc(N(CCCCNC(=O)CCOCCOCCOCCOCCNc2cccc3c2C(=O)N(C2CCC(=O)NC2=O)C3=O)c2nc(C(=O)O)c(CCCOc3ccc(C#CCN(C)C)cc3F)s2)nnc1Nc1nc2ccccc2s1` (centres unmarked) [Example 149, 2-[[6-(1,3-benzothiazol-2-ylamino)-5-methyl-pyridazin-3-yl]-[4-[3-[2-[2-[2-[2-[[2-(2,6-dioxo-3-piperidyl)-1,3-dioxo-isoindolin-4-yl]amino]ethoxy]ethoxy]ethoxy]ethoxy]propanoylamino]butyl]amino]-5-[3-[4-[3-(dimethylamino)prop-1-ynyl]-2-fluoro-phenoxy]propyl]thiazole-4-carboxylic acid] gave a pIC50 in assay [2] of 6.45.
In assay [1], `Cc1cc(N(CCCCCn2cc(CCCCCCCNc3cccc4c3C(=O)N(C3CCC(=O)NC3=O)C4=O)nn2)c2ccc(-c3cnn(CC45CC6(C)CC(C)(C4)CC(OCCN(C)C)(C6)C5)c3C)c(C(=O)O)n2)nnc1Nc1nc2ccccc2s1` (centres unmarked) [Example 150, 6-[[6-(1,3-benzothiazol-2-ylamino)-5-methyl-pyridazin-3-yl]-[5-[4-[7-[[2-(2,6-dioxo-3-piperidyl)-1,3-dioxo-isoindolin-4-yl]amino]heptyl]triazol-1-yl]pentyl]amino]-3-[1-[[3-[2-(dimethylamino)ethoxy]-5,7-dimethyl-1-adamantyl]methyl]-5-methyl-pyrazol-4-yl]pyridine-2-carboxylic acid] had a DC50 of 14.5 nM. In assay [2], the pIC50 was 7.71.
As for `Cc1ncsc1-c1ccc(CNC(=O)[C@@H]2C[C@@H](O)CN2C(=O)[C@@H](NC(=O)C2(F)CC2)C(C)(C)C)c(OCCCCCCCCCN2CCN(CC#Cc3ccc(OCCCc4sc(N5CCCc6c5nnc(Nc5nc7ccccc7s5)c6C)nc4C(=O)O)c(F)c3)CC2)c1` [Example 57, 2-(3-(benzo[d]thiazol-2-ylamino)-4-methyl-6,7-dihydropyrido [2,3-c]pyridazin-8(5H)-yl)-5-(3-(2-fluoro-4-(3-(4-(9-(2-(((2S,4R)-1-((S)-2-(1-fluorocyclopropane-1-carboxamido)-3,3-dimethylbutanoyl)-4-hydroxypyrrolidine-2-carboxamido)methyl)-5-(4-methylthiazol-5-yl)phenoxy)nonyl)piperazin-1-yl)prop-1-yn-1-yl)phenoxy)propyl)thiazole-4-carboxylic acid], the DC50 in assay [3] came to 18 nM. In addition, the pIC50 in assay [4] was 6.59; in assay [6], 5.44. Besides, the Emax in assay [4] amounted to 126%; in assay [6], 72.5%. Also, the 50% growth inhibitory concentration (GI50) (as a rule, the concentration that inhibits growth by half) in assay [5] worked out at 5 nM.
Turning to `Cc1ncsc1-c1ccc(CNC(=O)[C@@H]2C[C@@H](O)CN2C(=O)[C@@H](NC(=O)C2(F)CC2)C(C)(C)C)c(OCCCCCCCCCCCCN2CCN(CC#Cc3ccc(OCCCc4sc(N5CCCc6c5nnc(Nc5nc7ccccc7s5)c6C)nc4C(=O)O)c(F)c3)CC2)c1` [Example 55, 2-(3-(benzo[d]thiazol-2-ylamino)-4-methyl-6,7-dihydropyrido [2,3-c]pyridazin-8(5H)-yl)-5-(3-(2-fluoro-4-(3-(4-(12-(2-(((2S,4R)-1-((S)-2-(1-fluorocyclopropane-1-carboxamido)-3,3-dimethylbutanoyl)-4-hydroxypyrrolidine-2-carboxamido)methyl)-5-(4-methylthiazol-5-yl)phenoxy)dodecyl)piperazin-1-yl)prop-1-yn-1-yl)phenoxy)propyl)thiazole-4-carboxylic acid], in assay [4], the negative-log IC50 (pIC50) is 6.52 and the Emax came out at 78.8%. Besides, in assay [6], the pIC50 is 5.93 and the Emax was found to be 81%.
